Measured values as given in patent US7259140B2, “Heparin-binding peptides and uses thereof” (Thomas Jefferson University, priority 2003, dated 2007).
Entries after “also recorded” stand apart in the source; their conditions may differ. Bridge positions count the residues as written; N and C are the ends. Peptide text beside a SMILES is read from it.

What was measured:
[1] = system: anti-Factor Xa Activity of Unfractionated Heparin; test: Anti-Factor Xa assay: neutralization of unfractionated heparin in citrate or plasma in vitro; assay type: biochemical, human; details: UFH 0.7 U/ml
Method in brief: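 Chromogenic anti-Factor Xa kit run with UFH, enoxaparin (Lovenox) or danaparoid (Orgaran) in 0.32% citrate or citrated plasma from three volunteers. Heparin/ATIII complex formed, peptide added, then Factor Xa and dye substrate; absorbance at 405 nm, inversely proportional to remaining anti-Factor Xa activity.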

[2] = system: Anti-Factor Xa Activity of the Non-Heparin Glycosaminoglycan Orgaran ®; test: Anti-Factor Xa assay: neutralization of Orgaran in citrate or plasma in vitro; assay type: biochemical, human
Procedure: The ability of peptides such as (ARKKAAKA)3VLVLVLVL (SEQ ID NO:5) to neutralize the anti-Factor Xa activity of UFH and LMWH in vitro was tested using the Stachrom Heparin kit (Diagnostica Stago), a standard hematology laboratory assay used to measure the anti-Factor Xa activity of heparin. The assay was performed using the low molecular weight heparin enoxaparin sodium (Lovenox®, Aventis Pharmaceuticals, Inc.), unfractionated heparin (UFH), or the non-heparin glycosaminoglycan danaparoid sodium (Orgaran®, Organon Inc., West Orange, N.J.) in 0.32% citrate or in plasma anticoagulated with 0.32% citrate. Enoxaparin is commonly used clinically as a low molecular weight heparin (LMWH). Danaparoid is commonly used clinically as a non-heparin glycosaminoglycan anticoagulant. Currently, the only FDA approved drug to target UFH is protamine, which is not effective in vivo against LMWH or a non-heparin glycosaminoglycan such as danaparoid. Buffer and ATIII are added to form the heparin/ATIII complex, peptide is added, then Factor Xa, reporter dye substrate for Factor Xa activity, and stop solution, and the dye concentration is read at 405 nm. The absorbance of the dye increases with increasing Factor Xa activity, and thus is inversely proportional to the heparin (anti-Factor Xa activity) concentration. Peptides were tested in plasma obtained from three volunteers (A, B, and C). Platelet function inhibitors PG12 and theophylline were added to the blood immediately upon collection. […]

platelets = test: Platelet aggregation with aggregation-inducing agents; assay type: cell-based, human; details: 12 μg/ml; Lovenox 0.5 U/ml; collagen, ADP, ristocetin, epinephrine, SFFLRN, A23187
Procedure: Plasma from six volunteers was tested with various aggregation inducing agents, at several concentrations of each agent, and with six different peptides of the invention. The effect of heparin-binding peptides of the invention on platelet aggregation was determined using standard procedures as previously described. The six peptides which were synthesized and tested were: (ARKKAAKA)4 (SEQ ID NO:31), ARKKAAKA(A16)ARKKAAKA (SEQ ID NO:30), (ARKKAAKA)3ARKKCAKA (SEQ ID NO:33), (ARKKAAKA)3VLVLVLVL (SEQ ID NO:5), C(ARKKAAKA)4C (SEQ ID NO:34), and (AKKARA)6 (SEQ ID NO:32).
The aggregation-inducing agents tested were: collagen, adenosine diphosphate (ADP), ristocetin, epinephrine, the thrombin receptor peptide SFFLRN, and calcium ionophore A23187. Platelets were subjected to protamine, or to SEQ ID NOS:31, 33, 30, 5, 34, or 32 at 12 μg/ml, and Lovenox® at 0.5 U/ml. Platelet aggregation in response to agonists was monitored and percent aggregation was determined over a five minute interval.
The agonist was added after equilibration of the platelets for one minute.

[3] = system: unfractionated heparin (thrombin-induced clot formation); test: Thrombin neutralization assay: clotting time of citrated plasma in the presence of unfractionated heparin; assay type: biochemical, human; details: for Time for clot formation: UFH 0.5 IU/ml
Procedure: It was determined whether heparin-binding peptides of the invention can neutralize unfractionated heparin using the thrombin neutralization assay. The six peptides that were synthesized and used in this Example are: (ARKKAAKA)3VLVLVLVL (SEQ ID NO:5); (ARKKAAKA)(A16)(ARKKAAKA) (SEQ ID NO:30); (ARKKAAKA)4 (SEQ ID NO:31); (AKKARA)6 (SEQ ID NO:32); (ARKKAAKA)3(ARKKCAKA) (SEQ ID NO:33); and cyclized C(ARKKAAKA)4C (SEQ ID NO:34); Citrated plasma was pipetted into a glass tube. Thrombin was added, the tube was manually rotated, and clotting time was determined by observation of clot formation. Normal clotting time is 19-22 seconds.
As a control, to assess the effect of heparin on clot formation, unfractionated heparin was added to the plasma at 0.5 IU anti-thrombin activity/ml and then thrombin was added. Clotting time in the presence of heparin alone was greater than 3 minutes.
To test the effect of peptides, heparin and six peptides at the concentrations indicated in Table 4 were added to the plasma, the mixture was allowed to stand at room temperature for 1 minute, and thrombin was added. The time for the clot to form is indicated. Experiments were performed using plasma from three volunteers—A, B, and C.

[4] = Hemodynamic effects in rats without prior Lovenox; details: 2 mg per rat, no Lovenox
Procedure: Rats were sedated, and catheters were inserted into the femoral vein and femoral artery. The femoral artery catheter was hooked up to the computerized monitoring system, and injections were made through the femoral vein. Peptides were injected into rats without prior injection of Lovenox. Two or more rats (300-350 grams) were treated with 2 mg protamine or peptide.
At the times indicated in the figures, the following actions were taken: administration of saline to insure that the animal and intubations were stable; administration of test peptide or protamine alone; then administration of protamine.

[5] = Hemodynamic effects in rats after administration of the LMWH Lovenox; details: in the presence of LMWH Lovenox
Procedure: Next, experiments were performed in which the animals were treated with the peptides after the administration of the LMWH Lovenox®, as would happen in the clinical situation, because binding of peptides to LMWH would be expected to reduce the effects of the peptides on hemodynamic function.

C[C@@H]1NC(=O)[C@H](C)NC(=O)[C@H](CCCCN)NC(=O)[C@H](CCCCN)NC(=O)[C@H](CCCNC(=N)N)NC(=O)[C@H](C)NC(=O)[C@H](C)NC(=O)[C@H](CCCCN)NC(=O)[C@H](C)NC(=O)[C@H](C)NC(=O)[C@H](CCCCN)NC(=O)[C@H](CCCCN)NC(=O)[C@H](CCCNC(=N)N)NC(=O)[C@H](C)NC(=O)[C@@H](N)CSSC[C@@H](C(=O)O)NC(=O)[C@H](C)NC(=O)[C@H](CCCCN)NC(=O)[C@H](C)NC(=O)[C@H](C)NC(=O)[C@H](CCCCN)NC(=O)[C@H](CCCCN)NC(=O)[C@H](CCCNC(=N)N)NC(=O)[C@H](C)NC(=O)[C@H](C)NC(=O)[C@H](CCCCN)NC(=O)[C@H](C)NC(=O)[C@H](C)NC(=O)[C@H](CCCCN)NC(=O)[C@H](CCCCN)NC(=O)[C@H](CCCNC(=N)N)NC(=O)[C@H](C)NC(=O)[C@H](C)NC(=O)[C@H](CCCCN)NC1=O [C(ARKKAAKA)4C, cyclized C(ARKKAAKA)4C] (H-CARKKAAKAARKKAAKAARKKAAKAARKKAAKAC-OH; disulfide 1-34)
Unfractionated Heparin Neutralized ([1]; 1 μg/ml Peptide, A Plasma): 0.157 ± 0.032 U/ml | Unfractionated Heparin Neutralized ([1]; 1 μg/ml Peptide, B Plasma): 0.194 ± 0.066 U/ml | Unfractionated Heparin Neutralized ([1]; 1 μg/ml Peptide, C Plasma): 0.078 ± 0.027 U/ml | Unfractionated Heparin Neutralized ([1]; 1 μg/ml Peptide, Citrate): 0.131 ± 0.070 U/ml | Unfractionated Heparin Neutralized ([1]; 6 μg/ml Peptide, A Plasma): 0.442 ± 0.031 U/ml | Unfractionated Heparin Neutralized ([1]; 6 μg/ml Peptide, B Plasma): 0.426 ± 0.064 U/ml | Unfractionated Heparin Neutralized ([1]; 6 μg/ml Peptide, C Plasma): 0.447 ± 0.054 U/ml | Unfractionated Heparin Neutralized ([1]; 6 μg/ml Peptide, Citrate): 0.590 ± 0.024 U/ml | Unfractionated Heparin Neutralized ([1]; 12 μg/ml Peptide, A Plasma): 0.579 ± 0.128 U/ml | Unfractionated Heparin Neutralized ([1]; 12 μg/ml Peptide, B Plasma): 0.552 ± 0.056 U/ml | Unfractionated Heparin Neutralized ([1]; 12 μg/ml Peptide, C Plasma): 0.583 ± 0.066 U/ml | Unfractionated Heparin Neutralized ([1]; 12 μg/ml Peptide, Citrate): 0.560 ± 0.012 U/ml | Unfractionated Heparin Neutralized ([1]; 60 μg/ml Peptide, A Plasma): 0.605 ± 0.088 U/ml | Unfractionated Heparin Neutralized ([1]; 60 μg/ml Peptide, B Plasma): 0.566 ± 0.036 U/ml | Unfractionated Heparin Neutralized ([1]; 60 μg/ml Peptide, C Plasma): 0.572 ± 0.076 U/ml | Unfractionated Heparin Neutralized ([1]; 60 μg/ml Peptide, Citrate): 0.560 ± 0.018 U/ml | Unfractionated Heparin Neutralized ([1]; 120 μg/ml Peptide, A Plasma): 0.618 ± 0.051 U/ml | Unfractionated Heparin Neutralized ([1]; 120 μg/ml Peptide, B Plasma): 0.512 ± 0.032 U/ml | Unfractionated Heparin Neutralized ([1]; 120 μg/ml Peptide, C Plasma): 0.580 ± 0.051 U/ml | Unfractionated Heparin Neutralized ([1]; 120 μg/ml Peptide, Citrate): 0.530 ± 0.019 U/ml | Orgaran Neutralized ([2]; 1 μg/ml Peptide, A Plasma): 0.016 ± 0.012 U/ml | Orgaran Neutralized ([2]; 1 μg/ml Peptide, B Plasma): 0.038 ± 0.036 U/ml | Orgaran Neutralized ([2]; 1 μg/ml Peptide, C Plasma): 0.008 ± 0.005 U/ml | Orgaran Neutralized ([2]; 1 μg/ml Peptide, Citrate): 0.072 ± 0.052 U/ml | Orgaran Neutralized ([2]; 6 μg/ml Peptide, A Plasma): 0.074 ± 0.049 U/ml | Orgaran Neutralized ([2]; 6 μg/ml Peptide, B Plasma): 0.027 ± 0.016 U/ml | Orgaran Neutralized ([2]; 6 μg/ml Peptide, C Plasma): 0.030 ± 0.009 U/ml | Orgaran Neutralized ([2]; 6 μg/ml Peptide, Citrate): 0.099 ± 0.062 U/ml | Orgaran Neutralized ([2]; 12 μg/ml Peptide, A Plasma): 0.050 ± 0.031 U/ml | Orgaran Neutralized ([2]; 12 μg/ml Peptide, B Plasma): 0.082 ± 0.029 U/ml | Orgaran Neutralized ([2]; 12 μg/ml Peptide, C Plasma): 0.063 ± 0.025 U/ml | Orgaran Neutralized ([2]; 12 μg/ml Peptide, Citrate): 0.180 ± 0.023 U/ml | Orgaran Neutralized ([2]; 60 μg/ml Peptide, A Plasma): 0.287 ± 0.033 U/ml | Orgaran Neutralized ([2]; 60 μg/ml Peptide, B Plasma): 0.282 ± 0.020 U/ml | Orgaran Neutralized ([2]; 60 μg/ml Peptide, C Plasma): 0.250 ± 0.030 U/ml | Orgaran Neutralized ([2]; 60 μg/ml Peptide, Citrate): 0.319 ± 0.016 U/ml | Orgaran Neutralized ([2]; 120 μg/ml Peptide, A Plasma): 0.389 ± 0.118 U/ml | Orgaran Neutralized ([2]; 120 μg/ml Peptide, B Plasma): 0.374 ± 0.062 U/ml | Orgaran Neutralized ([2]; 120 μg/ml Peptide, C Plasma): 0.335 ± 0.012 U/ml | Orgaran Neutralized ([2]; 120 μg/ml Peptide, Citrate): 0.340 ± 0.010 U/ml | effect on platelet aggregation (platelets): no significant inhibition or enhancement of aggregation | effectiveness in thrombin neutralization assay [3]: effective | Time for clot formation ([3]; 0.35 μg peptide/0.1 ml, plasma A): 37.67 ± 5.25 s | Time for clot formation ([3]; 0.40 μg peptide/0.1 ml, plasma A): 29.00 ± 0.82 s | Time for clot formation ([3]; 0.40 μg peptide/0.1 ml, plasma B): 47.67 ± 8.34 s | Time for clot formation ([3]; 0.40 μg peptide/0.1 ml, plasma C): 56.33 ± 1.70 s | Time for clot formation ([3]; 0.50 μg peptide/0.1 ml, plasma A): 23.67 ± 2.05 s | Time for clot formation ([3]; 0.50 μg peptide/0.1 ml, plasma B): 34.33 ± 1.25 s | Time for clot formation ([3]; 0.50 μg peptide/0.1 ml, plasma C): 43.00 ± 2.45 s | effect on blood pressure [4]: did not cause a change in blood pressure | effect on blood pressure and heart rate / toxicity [5]: no, or minimal, adverse effects on blood pressure or heart rate; also recorded: not toxic | effect on blood pressure and heart rate / toxicity ([5]; listed as C(ARKKAAKA)4C-cyclized): All rats tested showed no response
